In patent US20240050385A1, “METHODS OF TREATING LEPTOMENINGEAL METASTASIS” (MEMORIAL SLOAN-KETTERING CANCER CENTER, priority 2020, published 2024):
Entries after “also recorded” stand apart in the source; their conditions may differ. Where a name gives a salt, the structure may show the parent alone.

Key:
PC9-LeptoM cells = assay: In vivo leptomeningeal metastasis assay, PC9-LeptoM model, intracisternal chelator treatment; parameters: species or system mouse
LeptoM cells = assay: Iron Assay, chelation assay in vitro (intracellular iron); type: cell-based, human; details: PC9-LeptoM and MDA231-LeptoM cells; 0, 1, 10, 100 μM; in words
Description: FIG. 16A-16L. Iron chelator treatment reduces CSF iron. (A) Experimental scheme. Mice were inoculated with 2×10^3 cells intrathecally on day 0. Treatment with either vehicle, DFO, or D-pen was commenced on either day 1 or day 7 and continued every third day for a total of 7 doses. (B) Chelators delivered intrathecally. DFO, Deferoxamine. D-Pen, D-Penicillamine. (C-F) Intracellular iron (C and E) and viability (D and F) of PC9-LeptoM cells and MDA231-LeptoM cells after treatment with chelators in different concentrations (0 μM, 1 μM, 10 μM and 100 μM). n=3-4 per group in each of two independent experiments. * indicates p<0.05, ** indicates p<0.01, ***indicates p<0.001, **** indicates p<0.0001 (unpaired t test). Data represent mean±SEM. (G) Growth of PC9-LeptoM tumor after treatment indicated in (A). Left: in vivo BLI imaging in day 28 post-inoculation. n=8-10 per group in each of two independent experiments. Right: Representative BLI images. **** indicates p<0.0001. Data represent mean±SEM. (H) Kaplan-Meier survival curve from (C) and (E). p<0.0001. (I and J) Total iron concentration measured in CSF samples of mice with treatment of chelators in PC9-LeptoM Model (I) in MDA231-LeptoM model (J). […]
Iron Assay. […] The Iron Assay Kit (Sigma-Aldrich, MAK025) was used to quantify total iron in the intracellular contents and culture supernatant following the manufacturer's protocols. […]

SMILES: CC(=O)N(O)CCCCCNC(=O)CCC(=O)N(O)CCCCCNC(=O)CCC(=O)N(O)CCCCCN [DFO, Deferoxamine mesylate]
- [Fe] (PC9-LeptoM cells; total iron in CSF, early (day 0)): 5.63 ± 0.70 µM
- Median Survival (PC9-LeptoM cells; treatment begun early (day 0), every 3 days): 52 ± 7 days
- iron levels within the LeptoM cells (LeptoM cells): substantially suppressed; also recorded: dramatically suppressed
